From patent US5547975A, “Benzopyranopyrazolyl derivatives for the treatment of inflammation” (priority 1994, dated 1996)

What was measured:
Human COX II = target: T1, Human COX II (Homo sapiens, UniProt P35354); test: Evaluation of COX II activity in vitro (recombinant enzyme, PGE2 ELISA); assay type: biochemical; conditions: 10 μM arachidonic acid, pre-incubation 10-20 minutes, pH 8.0; read-out: Human COX II ID50
T1 construct: made in house; host or cells: SF9 insect cells, recombinant baculovirus (transfer vector pVL1393)
T1 sequence (P35354 18-604): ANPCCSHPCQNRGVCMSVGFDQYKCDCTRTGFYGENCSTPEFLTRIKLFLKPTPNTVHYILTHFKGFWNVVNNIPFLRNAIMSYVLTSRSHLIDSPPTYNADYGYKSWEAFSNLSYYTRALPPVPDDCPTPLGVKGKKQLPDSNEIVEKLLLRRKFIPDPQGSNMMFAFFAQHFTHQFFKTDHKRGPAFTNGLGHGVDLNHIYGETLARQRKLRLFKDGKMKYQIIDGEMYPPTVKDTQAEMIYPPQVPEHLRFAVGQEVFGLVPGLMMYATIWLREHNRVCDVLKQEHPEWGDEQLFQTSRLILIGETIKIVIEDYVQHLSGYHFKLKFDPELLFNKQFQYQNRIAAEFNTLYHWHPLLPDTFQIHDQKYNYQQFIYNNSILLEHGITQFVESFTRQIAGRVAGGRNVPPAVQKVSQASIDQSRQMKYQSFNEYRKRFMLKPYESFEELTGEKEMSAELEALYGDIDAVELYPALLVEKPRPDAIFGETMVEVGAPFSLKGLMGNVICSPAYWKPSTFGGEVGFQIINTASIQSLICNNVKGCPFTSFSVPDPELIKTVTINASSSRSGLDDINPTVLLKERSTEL
Method: (§1) Evaluation of COX I and COX II activity in vitro
The COX II inhibition activity of the compounds of this invention illustrated in the Examples was determined by the following methods.
(§2) a. Preparation of recombinant COX baculoviruses
(§3) A 2.0 kb fragment containing the coding region of either human or murine COX-I or human or murine COX-II was cloned into a BamH1 site of the baculovirus transfer vector pVL1393 (Invitrogen) to generate the baculovirus transfer vectors for COX-I and COX-II in a manner similar to the method of D. R. O'Reilly et al (Baculovirus Expression Vectors: A Laboratory Manual (1992)). Recombinant baculoviruses were isolated by transfecting 4 μg of baculovirus transfer vector DNA into SF9 insect cells ([…]) along with 200 ng of linearized baculovirus plasmid DNA by the calcium phosphate method. See M. D. Summers and G. E. Smith, A Manual of Methods for Baculovirus Vectors and Insect Cell Culture Procedures, Texas Agric. Exp. Station Bull. 1555 (1987). Recombinant viruses were purified by three rounds of plaque purification and high titer (10E7-10E8 pfu/ml) stocks of virus were prepared. For large scale production, SF9 insect cells were infected in 10 liter fermentors (0.5×10^6 /ml) with the recombinant baculovirus stock such that the multiplicity of infection was 0.1. After 72 hours the cells were centrifuged and the cell pellet homogenized in Tris/Sucrose (50 mM: 25%, pH 8.0) containing 1% 3-[(3-cholamidopropyl)dimethylammonio]-1-propanesulfonate (CHAPS). The homogenate was centrifuged at 10,000'G for 30 minutes, and the resultant supernatant was stored at -80° C. before being assayed for COX activity.
(§4) b. Assay for COX I and COX II activity:
(§5) COX activity was assayed as PGE2 formed/μg protein/time using an ELISA to detect the prostaglandin released. CHAPS-solubilized insect cell membranes containing the appropriate COX enzyme were incubated in a potassium phosphate buffer (50 mM, pH 8.0) containing epinephrine, phenol, and heme with the addition of arachidonic acid (10 μM). Compounds were pre-incubated with the enzyme for 10-20 minutes prior to the addition of arachidonic acid. Any reaction between the arachidonic acid and the enzyme was stopped after ten minutes at 37° C./room temperature by transferring 40 μl of reaction mix into 160 μl ELISA buffer and 25 μM indomethacin. The PGE2 formed was measured by standard ELISA technology (Cayman Chemical).

Human COX I = target: T2, Human COX I (Homo sapiens, UniProt P23219); test: Evaluation of COX I activity in vitro (recombinant enzyme, PGE2 ELISA); assay type: biochemical; conditions: 10 μM arachidonic acid, pre-incubation 10-20 minutes, pH 8.0; read-out: Human COX I ID50
T2 construct: made in house; host or cells: SF9 insect cells, recombinant baculovirus (transfer vector pVL1393)
From the text: as §1, §2, §3, §4, §5

T2 sequence (P23219 24-599): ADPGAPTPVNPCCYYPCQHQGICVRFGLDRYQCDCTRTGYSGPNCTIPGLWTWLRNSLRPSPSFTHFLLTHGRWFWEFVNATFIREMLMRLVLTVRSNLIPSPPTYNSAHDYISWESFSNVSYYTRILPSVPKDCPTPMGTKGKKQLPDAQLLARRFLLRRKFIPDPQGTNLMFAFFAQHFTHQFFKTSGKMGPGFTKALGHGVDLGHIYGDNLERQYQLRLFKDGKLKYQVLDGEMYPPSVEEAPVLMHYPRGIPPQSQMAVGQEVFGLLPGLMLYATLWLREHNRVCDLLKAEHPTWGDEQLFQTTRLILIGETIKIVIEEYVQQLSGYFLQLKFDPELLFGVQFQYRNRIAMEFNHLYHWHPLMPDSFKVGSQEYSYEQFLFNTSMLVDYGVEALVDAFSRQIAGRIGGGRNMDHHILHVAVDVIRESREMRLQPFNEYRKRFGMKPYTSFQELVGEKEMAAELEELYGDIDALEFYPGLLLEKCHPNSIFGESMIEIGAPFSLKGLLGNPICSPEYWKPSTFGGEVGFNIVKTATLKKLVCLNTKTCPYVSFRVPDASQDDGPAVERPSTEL

Row | IC50 (Human COX II) [µM] | IC50 (Human COX I) [µM] | Structure (SMILES)
1 | < 0.1 | 2.7 | COc1ccc2c(c1F)CSc1c(C(F)(F)F)nn(-c3ccc(S(N)(=O)=O)cc3)c1-2 [Example 1, 4-[1,5-Dihydro-6-fluoro-7-methoxy-3-(trifluoromethyl)-[2]benzothiopyrano[4,3-c]pyrazol-1-yl]benzenesulfonamide]
2 | 1.3 | – | NS(=O)(=O)c1ccc(-n2nc(C(F)(F)F)c3c2-c2ccccc2OC3)cc1 [Example 3, 4-[1,4-Dihydro-3-(trifluoromethyl)-[1]benzopyrano[4,3-c]pyrazol-1-yl]benzenesulfonamide]
3 | 0.5 | – | COC(=O)c1nn(-c2ccc(S(N)(=O)=O)cc2)c2c1COc1ccccc1-2 [Example 4, Methyl[1-[4-(aminosulfonyl)phenyl]-1,4-dihydro-[1]benzopyrano[4,3-c]pyrazol-3-yl]carboxylate]
4 | 4.8 | 24.4 | NS(=O)(=O)c1ccc(-n2nc(C(F)(F)F)c3c2-c2cc(F)ccc2OC3)cc1 [Example 5, 4-[1,4-Dihydro-8-fluoro-3-(trifluoromethyl)-[1]benzopyrano[4,3-c]pyrazol-1-yl]benzenesulfonamide]
5 | 23.5 | 11.1 | NS(=O)(=O)c1ccc(-n2nc(C(F)(F)F)c3oc4ccccc4c32)cc1 [Example 6, 4-[3-(Trifluoromethyl)-1H-benzofuro[3,2-c]pyrazol-1-yl]benzenesulfonamide]
6 | 0.5 | – | COC(=O)c1nn(-c2ccc(S(N)(=O)=O)cc2)c2c1CSc1ccccc1-2 [Example 8, Methyl[1-[(4-aminosulfonyl)phenyl]-1,4-dihydro-[1]benzothiopyrano[4,3-c]pyrazol-3-yl]carboxylate]
7 | 48.2 | > 100 | NS(=O)(=O)c1ccc(-n2nc(C(F)(F)F)c3c2-c2ccc(Cl)c(Cl)c2SC3)cc1 [Example 9, 4-[6,7-Dichloro-1,4-dihydro-3-(trifluoromethyl)-[1]benzothiopyrano[4,3-c]pyrazol-1-yl]benzenesulfonamide]
8 | < 0.1 | 6.2 | NS(=O)(=O)c1ccc(-n2nc(C(F)(F)F)c3c2-c2ccc(F)cc2SC3)cc1 [Example 10, 4-[1,4-Dihydro-7-fluoro-3-(trifluoromethyl)-[1]benzothiopyrano[4,3-c]pyrazol-1-yl]benzenesulfonamide]
9 | 52 | > 100 | CC(C)c1cccc2c1SCc1c(C(F)(F)F)nn(-c3ccc(S(N)(=O)=O)cc3)c1-2 [Example 11, 4-[1,4-Dihydro-6-isopropyl-3-(trifluoromethyl)-[1]benzothiopyrano[4,3-c]pyrazol-1-yl]benzenesulfonamide]
10 | 95 | > 100 | COc1cc2c(cc1OC)-c1c(c(C(F)(F)F)nn1-c1ccc(S(N)(=O)=O)cc1)CS2 [Example 12, 4-[1,4-Dihydro-7,8-dimethoxy-3-(trifluoromethyl)-[1]benzothiopyrano[4,3-c]pyrazol-1-yl]benzenesulfonamide]
11 | < 0.1 | < 0.1 | COc1ccc2c(c1)SCc1c(C(F)(F)F)nn(-c3ccc(S(N)(=O)=O)cc3)c1-2 [Example 13, 4-[1,4-Dihydro-7-methoxy-3-(trifluoromethyl)-[1]benzothiopyrano[4,3-c]pyrazol-1-yl]benzenesulfonamide]
12 | 0.2 | 4.6 | Cc1ccc2c(c1)SCc1c(C(F)(F)F)nn(-c3ccc(S(N)(=O)=O)cc3)c1-2 [Example 14, 4-[1,4-Dihydro-7-methyl-3-(trifluoromethyl)-[1]benzothiopyrano[4,3-c]pyrazol-1-yl]benzenesulfonamide]
13 | < 0.1 | 0.3 | NS(=O)(=O)c1ccc(-n2nc(C(F)(F)F)c3c2-c2ccc(Cl)cc2SC3)cc1 [Example 15, 4-[7-Chloro-1,4-dihydro-3-(trifluoromethyl)-[1]benzothiopyrano[4,3-c]pyrazol-1-yl]benzenesulfonamide]
14 | < 0.1 | – | NS(=O)(=O)c1ccc(-n2nc(C(F)(F)F)c3c2-c2ccccc2CS3)cc1 [Example 16, 4-[1,5-Dihydro-3-(trifluoromethyl)-[2]benzothiopyrano[4,3-c]pyrazol-1-yl]benzenesulfonamide]
15 | < 0.1 | 0.8 | Cc1ccc2c(c1)CSc1c(C(F)(F)F)nn(-c3ccc(S(N)(=O)=O)cc3)c1-2 [Example 17, 4-[1,5-Dihydro-7-methyl-3-(trifluoromethyl)-[2]benzothiopyrano[4,3-c]pyrazol-1-yl]benzenesulfonamide]
16 | < 0.1 | 3.7 | Cc1ccc2c(c1)CSc1c(C(F)(F)F)nn(-c3ccc(S(C)(=O)=O)cc3)c1-2 [Example 18, 1,5-Dihydro-1-[4-(methylsulfonyl)phenyl]-7-methyl-3-(trifluoromethyl)-[2]benzothiopyrano[4,3-c]pyrazole]
17 | < 0.1 | 0.3 | NS(=O)(=O)c1ccc(-n2nc(C(F)(F)F)c3c2-c2ccc(Cl)cc2CS3)cc1 [Example 19, 4-[7-Chloro-1,5-dihydro-3-(trifluoromethyl)-[2]benzothiopyrano[4,3-c]pyrazol-1-yl]benzenesulfonamide]
18 | < 0.1 | < 0.1 | COc1ccc2c(c1)CSc1c(C(F)(F)F)nn(-c3ccc(S(N)(=O)=O)cc3)c1-2 [Example 20, 4-[1,5-Dihydro-7-methoxy-3-(trifluoromethyl)-[2]benzothiopyrano[4,3-c]pyrazol-1-yl]benzenesulfonamide]
19 | 3.5 | 51 | N#Cc1nn(-c2ccc(S(N)(=O)=O)cc2)c2c1CSc1ccccc1-2 [Example 22, 1-[4-(Aminosulfonyl)phenyl]-1,4-dihydro-[1]benzothiopyrano[4,3-c]pyrazol-3-carbonitrile]
20 | 45.6 | 91.1 | NS(=O)(=O)c1ccc(-n2nc(C(F)(F)F)c3c2-c2cc(Cl)sc2C[S+]3[O-])cc1 (stereo not shown) [Example 24, 4-[7-chloro-1,5-dihydro-3-trifluoromethyl-thieno[3',2':4,5]thiopyrano-s-oxide[3,2-c]pyrazol-1-yl]benzenesulfonamide]
21 | < 0.1 | > 100 | COc1ccc2c(c1F)CSc1c(C(F)F)nn(-c3ccc(S(N)(=O)=O)cc3)c1-2 [Example 25, 4-[3-(difluoromethyl)-1,5-dihydro-6-fluoro-7-methoxy-[2]benzothiopyrano[4,3-c]pyrazol-1-yl]benzenesulfonamide]
22 | < 0.1 | 0.3 | NS(=O)(=O)c1ccc(-n2nc(C(F)(F)F)c3c2-c2ccc(F)cc2CS3)cc1 [Example 26, 4-[1,5-dihydro-7-fluoro-3-(trifluoromethyl)-[2]benzothiopyrano[4,3-c]pyrazol-1-yl]benzenesulfonamide]
23 | 4.7 | > 100 | NC(=O)c1nn(-c2ccc(S(N)(=O)=O)cc2)c2c1SCc1cc(F)ccc1-2 [Example 27, [1-(4-aminosulfonylphenyl)-1,5-dihydro-7-fluoro-[2]benzothiopyrano[4,3-c]pyrazol-3-yl]carboxamide]
24 | 1.2 | > 100 | COc1ccc2c(c1F)C[S+]([O-])c1c(C(F)(F)F)nn(-c3ccc(S(N)(=O)=O)cc3)c1-2 (stereo not shown) [Example 28, 4-[1,5-dihydro-6-fluoro-7-methoxy-3-(trifluoromethyl)-[2]benzothiopyrano-S-oxide[4,3-c]pyrazol-1-yl]benzenesulfonamide]
25 | 0.8 | 13.2 | COC(=O)c1nn(-c2ccc(S(N)(=O)=O)cc2)c2c1SCc1cc(F)ccc1-2 [Example 29, methyl[1-(4-aminosulfonylphenyl)-1,5-dihydro-7-fluoro-[2]benzothiopyrano[4,3-c]pyrazol-3-yl]carboxylate]
